Source: patent publication US9205129B2, “Methods of treatment and screening assays for HIF-1α regulation” (University of Rochester, priority 2009, dated 2015)
Peptide text beside a SMILES is read from it. * marks the point of attachment. Cbz = O=C(OCc1ccccc1)*

Tests used:
[1] = system: HIF-1α (myc-HIF-V5); test: Cycloheximide pulse-chase / Western blot of myc-HIF-V5 in transfected HN33 cells; type: cell-based, mouse
Experimental: Cell lysates were obtained by rinsing monolayers with ice-cold PBS×1 followed by the addition of RIPA buffer containing both protease and phosphatase inhibitor cocktails (Sigma-Aldrich, St. Louis, Mo.). Samples were boiled in Laemmeli buffer and electrophoresed under reducing conditions on polyacrylamide gels. Proteins were transferred to PVDF membranes and blocked in TBS-T ([…] Tris-HCl, pH 8.0, 0.9% NaCl, and 0.1% Tween-20™) containing 5% non-fat dry milk for 1 h at room temperature. Antibodies used in this study included: NeuN (Chemicon, Temecula, Calif.; 1:500), GFP, HIF-1α (Novus Biologicals, NB-100-449 and NB-100-131, Littleton, Colo.), TUJ1 & MKP-1 (Santa Cruz Biologicals, San Diego, Calif.; 1:500) Caspase 9, cleaved caspase-3, -9, -12, and cleaved PARP (CST, Danvers, Mass.). Blots were exposed to HRP conjugated secondary antibodies (Santa Cruz Biologicals, CA) prior to chemiluminescent detection (Amersham). To resolve molecular weight changes in HIF-1α, crude lysates were run on 15% PAGE gels.
The cDNA for mouse HIF-1α was generated by RT-PCR using total cDNA from HN33.11 cultures using Superscript III according to the manufacturer's instructions using the random hexamer method (Invitrogen, Carlsbad, Calif.). PCR was performed using forward (5′-[…]-3′ (SEQ ID NO:1)) and reverse (5′-TCAG-[…]-3′ (SEQ ID NO:2)) primers as described (Chun et al., “A New HIF-1 Alpha Variant Induced by Zinc Ion Suppresses HIF-1-Mediated Hypoxic Responses,” J. Cell Sci. 114:4051-61 (2001), which is hereby incorporated by reference in its entirety), and the cDNA was sub-cloned to pCDNA3.1 and sequenced in its entirety. This sequence was sub-cloned by PCR using high fidelity polymerase and both the forward primer (5′-GCGGGATCCA […] GAA-3′ (SEQ ID NO:3)) containing a BamHI site followed by a Kozak consensus sequence and the Myc epitope tag and the reverse primer (5′-ggggcggccgcTAA CTTGATCCAAAGC […]-3′ (SEQ ID NO:4)) containing the Not I site allowing in frame ligation with the V5-6×His tag in pUB6-V5-6×HIS (Invitrogen). […]

[2] = system: mouse HIF-1α (Myc-HIF-6×His-V5); test: Western blot of V5-tagged mouse HIF-1α expressed in N2A neuroblastoma line; type: cell-based; conditions: N2A cells, 24 hours post-transfection (FIG. 7A)
Experimental: (§1) FIGS. 7A-C illustrate in vitro characterization and purification of HIF-1α cleavage product. […] Effects of MKP overexpression were tested by co-expressing either empty plasmid (pSG5) or vector expressing wildtype MKP-1 (pSG5-MKPwt; compare lanes 1 vs 2 & 3). Parallel samples were also treated with the proteosome inhibitor MG132 to determine whether sub fragments could be stabilized. Full-length and c-terminal fragments were identified using the carboxy-terminal V5 tag. FIG. 7B depicts optimization of expression conditions for human HIF-V5-6×His. Full-length and the proteolytic cleavage form of human HIF-1α are observed when expressed in the mouse N2A line. Other bands are shown as present in both samples and are cross reactive contaminants with V5 antibody. FIG. 7C illustrates affinity purification of the c-terminal HIF-1α fragment using the 6×His tag resin. N2A cells were transfected with the empty (pUB6-MCS) or HIF-expressing plasmids (pUb6-hHIF) and exposed to MG132 to induce fragment accumulation.
Cell lysates were obtained by rinsing monolayers with ice-cold PBS×1 followed by the addition of RIPA buffer containing both protease and phosphatase inhibitor cocktails (Sigma-Aldrich, St. Louis, Mo.). Samples were boiled in Laemmeli buffer and electrophoresed under reducing conditions on polyacrylamide gels. […]

[3] = system: human HIF-1α (HIF-V5-6×His); test: Western blot of human HIF-1α fusion expressed in N2A line; type: cell-based; conditions: human HIF-1α fusion in N2A line treated with MG132 (FIG. 7B)
Experimental: as §1
The addition of MKPwt reduced overall levels of both full-length and C-terminal fragments. […] Bands correlating to full length (approximately 110 kDa) and the c-terminal fragment (running at approximately 48 kDa) were isolated from polyacrylamide gels and subjected to LC-MS/MS. […]

[4] = system: HIF-1α; conditions: effect of lambda phosphatase, compared with MEK inhibitor; cited from earlier work

Compound | induction of LMW-HIF-1α species ([1]; FIG. 4D legend, HN33 lysates, CHX pulse-chase and MG132) | effect on MKP-1 mediated destabilization of HIF-1α ([1]; HN33 cells transfected with dual-tagged vector, normoxic, cycloheximide pulse chase (FIG. 4D)) | accumulation of intermediate myc-HIF-V5 species ([1]; HN33 cells, independent of MKP-1 levels (FIG. 4D, double asterisk)) | detection of V5-reactive C-terminal fragment of HIF-1α [2] | formation of c-terminal HIF-1α fragment [3] | reduction of HIF-1α complex doublet to a single 103 kDa band [4]
CC(C)C[C@@H](C=O)NC(=O)[C@H](CC(C)C)NC(=O)[C@H](CC(C)C)NC(=O)OCc1ccccc1 [MG132] (Cbz-Leu-Leu-Leu-aldehyde) | inducing several LMW-HIF-1α species | negate the destabilizing effect of MKP-1 | enhanced the accumulation | detected only after treatment | produced the expected c-terminal HIF-1α fragment | –
COc1cccc(-c2cc(=O)c3ccccc3o2)c1N [PD98059] | – | – | – | – | – | effect mimicked
